Results published in PMC9958223, “Biochemical characterization of extremozyme L-asparaginase from Pseudomonas sp. PCH199 for therapeutics” (AMB Express, 2023).

Assays:
[1] = test system: T1, periplasmic L-ASNase (PCH199 L-ASNase, type II); assay: Nessler ammonia assay at […] nm, non-linear Michaelis-Menten fit; type: biochemical, Pseudomonas sp. PCH199; conditions: 0.1-3.0 mM substrate; standard assay 50 mM Tris-HCl pH 8.5, 37 ℃ (temperature of the kinetic run not restated)
T1 construct: gene ansB; native, purified from periplasm by osmotic shock (ammonium sulfate, Q-Sepharose, Superdex 200)

[2] = test system: T1, periplasmic L-ASNase (PCH199 L-ASNase, type II); assay: Michaelis-Menten non-linear regression (assay details not told); type: biochemical, Pseudomonas sp. PCH199; conditions: 0.02-0.5 mM substrate; assay pH and temperature not stated for L-glutamine

| Km [1] | Km [2] | SMILES |
| --- | --- | --- |
| 164 ± 9 µM | – | NC(=O)C[C@H](N)C(=O)O [L-asparagine] |
| – | 34 µM | NC(=O)CC[C@H](N)C(=O)O [L-glutamine] |
